System: women with insomnia secondary to perimenopause or menopause
Test: Clinical study: number of nocturnal awakenings due to hot flashes
Format: in vivo
Conditions: for Number of Nocturnal Awakenings due to Hot Flashes, Observed Value, Mean (SD) / Number of Nocturnal Awakenings due to Hot Flashes, Observed Value, 25th Percentile / Number of Nocturnal Awakenings due to Hot Flashes, Observed Value, 75th Percentile / Number of Nocturnal Awakenings due to Hot Flashes, Observed Value, Maximum / Number of Nocturnal Awakenings due to Hot Flashes, Observed Value, Median / Number of Nocturnal Awakenings due to Hot Flashes, Observed Value, Minimum / Number of Nocturnal Awakenings due to Hot Flashes, Change from Baseline, 25th Percentile / Number of Nocturnal Awakenings due to Hot Flashes, Change from Baseline, 75th Percentile / Number of Nocturnal Awakenings due to Hot Flashes, Change from Baseline, Maximum / Number of Nocturnal Awakenings due to Hot Flashes, Change from Baseline, Mean (SD) / Number of Nocturnal Awakenings due to Hot Flashes, Change from Baseline, Median / Number of Nocturnal Awakenings due to Hot Flashes, Change from Baseline, Minimum / Number of Nocturnal Awakenings due to Hot Flashes, Change from Baseline, Least Squares Means (SE) [3] / Number of Nocturnal Awakenings due to Hot Flashes, Observed Value, Least Squares Means (SE) [2]: ITT; for Number of Nocturnal Awakenings due to Hot Flashes, Change from Baseline, Least Squares Means (SE) [3]: ANCOVA; for Number of Nocturnal Awakenings due to Hot Flashes, Observed Value, Least Squares Means (SE) [2]: ANOVA
Protocol: The study was aimed at observing efficacy of eszopiclone 3 mg compared to placebo in the treatment of insomnia secondary to perimenopause or menopause. The study was a multicenter, randomized, double-blind, placebo-controlled, parallel-group study. […] The primary method of analysis compared the post-randomization results between the two treatment groups.
Subjects were women with insomnia secondary to perimenopause or menopause. Subjects were perimenopausal or menopausal and had insomnia symptoms including ≧45 minutes sleep latency (SL) and total sleep time (TST) ≦6 hours. Perimenopausal/menopausal symptoms predated the onset of sleep disturbance symptoms. The patient population was predominately Caucasian (77.2%). The mean age was 49, with a range of 40-60.
A total of 410 subjects were randomized. Among them, 201 received 3 mg of eszopiclone (ESZ) nightly (at bedtime) for four weeks and 209 received matching placebo (PBO).

## CN1CCN(C(=O)O[C@H]2c3nccnc3C(=O)N2c2ccc(Cl)cn2)CC1 [Eszopiclone, (+)6-(5-chloropyrid-2-yl)-5-(4-methylpiperazin-1-yl)carbonyloxy-7-oxo-6,7-dihydro-5H-pyrrolo[3-4-b]pyrazine]
Baseline (average of all pre-DB observations), 3 mg group
  Number of Nocturnal Awakenings due to Hot Flashes, Observed Value, Mean (SD): 1.3 (1.2)
Baseline, 3 mg group
  Number of Nocturnal Awakenings due to Hot Flashes, Observed Value, 25th Percentile: 0.3
  Number of Nocturnal Awakenings due to Hot Flashes, Observed Value, 75th Percentile: 2.0
  Number of Nocturnal Awakenings due to Hot Flashes, Observed Value, Maximum: 6.0
  Number of Nocturnal Awakenings due to Hot Flashes, Observed Value, Median: 1.0
  Number of Nocturnal Awakenings due to Hot Flashes, Observed Value, Minimum: 0.0
DB Average, 3 mg nightly
  Number of Nocturnal Awakenings due to Hot Flashes, Change from Baseline, 25th Percentile: −1.1
  Number of Nocturnal Awakenings due to Hot Flashes, Change from Baseline, 75th Percentile: 0.0
  Number of Nocturnal Awakenings due to Hot Flashes, Change from Baseline, Maximum: 1.5
  Number of Nocturnal Awakenings due to Hot Flashes, Change from Baseline, Mean (SD): −0.7 (1.0)
  Number of Nocturnal Awakenings due to Hot Flashes, Change from Baseline, Median: −0.5
  Number of Nocturnal Awakenings due to Hot Flashes, Change from Baseline, Minimum: −6.0
  Number of Nocturnal Awakenings due to Hot Flashes, Observed Value, 25th Percentile: 0.0
  Number of Nocturnal Awakenings due to Hot Flashes, Observed Value, 75th Percentile: 0.9
  Number of Nocturnal Awakenings due to Hot Flashes, Observed Value, Maximum: 2.7
  Number of Nocturnal Awakenings due to Hot Flashes, Observed Value, Mean (SD): 0.5 (0.6)
  Number of Nocturnal Awakenings due to Hot Flashes, Observed Value, Median: 0.2
  Number of Nocturnal Awakenings due to Hot Flashes, Observed Value, Minimum: 0.0
  Number of Nocturnal Awakenings due to Hot Flashes, Change from Baseline, Least Squares Means (SE) [3]: −0.7 (0.1)
  Number of Nocturnal Awakenings due to Hot Flashes, Observed Value, Least Squares Means (SE) [2]: 0.5 (0.1)
Week 1, 3 mg nightly
  nocturnal awakenings due to hot flashes, LS means: 0.3 per night
  Number of Nocturnal Awakenings due to Hot Flashes, Change from Baseline, 25th Percentile: −1.2
  Number of Nocturnal Awakenings due to Hot Flashes, Change from Baseline, 75th Percentile: 0.0
  Number of Nocturnal Awakenings due to Hot Flashes, Change from Baseline, Maximum: 0.8
  Number of Nocturnal Awakenings due to Hot Flashes, Change from Baseline, Mean (SD): −0.7 (1.0)
  Number of Nocturnal Awakenings due to Hot Flashes, Change from Baseline, Median: −0.5
  Number of Nocturnal Awakenings due to Hot Flashes, Change from Baseline, Minimum: −6.0
  Number of Nocturnal Awakenings due to Hot Flashes, Observed Value, 25th Percentile: 0.0
  Number of Nocturnal Awakenings due to Hot Flashes, Observed Value, 75th Percentile: 1.0
  Number of Nocturnal Awakenings due to Hot Flashes, Observed Value, Maximum: 3.0
  Number of Nocturnal Awakenings due to Hot Flashes, Observed Value, Mean (SD): 0.5 (0.7)
  Number of Nocturnal Awakenings due to Hot Flashes, Observed Value, Median: 0.2
  Number of Nocturnal Awakenings due to Hot Flashes, Observed Value, Minimum: 0.0
  Number of Nocturnal Awakenings due to Hot Flashes, Change from Baseline, Least Squares Means (SE) [3]: −0.7 (0.1)
  Number of Nocturnal Awakenings due to Hot Flashes, Observed Value, Least Squares Means (SE) [2]: 0.5 (0.1)
Week 2, 3 mg nightly
  Number of Nocturnal Awakenings due to Hot Flashes, Change from Baseline, 25th Percentile: −1.0
  Number of Nocturnal Awakenings due to Hot Flashes, Change from Baseline, 75th Percentile: 0.0
  Number of Nocturnal Awakenings due to Hot Flashes, Change from Baseline, Maximum: 2.0
  Number of Nocturnal Awakenings due to Hot Flashes, Change from Baseline, Mean (SD): −0.7 (1.0)
  Number of Nocturnal Awakenings due to Hot Flashes, Change from Baseline, Median: −0.6
  Number of Nocturnal Awakenings due to Hot Flashes, Change from Baseline, Minimum: −6.0
  Number of Nocturnal Awakenings due to Hot Flashes, Observed Value, 25th Percentile: 0.0
  Number of Nocturnal Awakenings due to Hot Flashes, Observed Value, 75th Percentile: 1.0
  Number of Nocturnal Awakenings due to Hot Flashes, Observed Value, Maximum: 3.0
  Number of Nocturnal Awakenings due to Hot Flashes, Observed Value, Mean (SD): 0.5 (0.7)
  Number of Nocturnal Awakenings due to Hot Flashes, Observed Value, Median: 0.0
  Number of Nocturnal Awakenings due to Hot Flashes, Observed Value, Minimum: 0.0
  Number of Nocturnal Awakenings due to Hot Flashes, Change from Baseline, Least Squares Means (SE) [3]: −0.6 (0.1)
  Number of Nocturnal Awakenings due to Hot Flashes, Observed Value, Least Squares Means (SE) [2]: 0.5 (0.1)
Week 3, 3 mg nightly
  Number of Nocturnal Awakenings due to Hot Flashes, Change from Baseline, 25th Percentile: −1.0
  Number of Nocturnal Awakenings due to Hot Flashes, Change from Baseline, 75th Percentile: 0.0
  Number of Nocturnal Awakenings due to Hot Flashes, Change from Baseline, Maximum: 1.5
